# Test results as given in the NIST ThermoML archive (doi:10.1016/j.jct.2012.09.017).
# ± gives the expanded uncertainty stated by the source.
# Assay: activity coefficient (dimensionless); of the first substance listed, at infinite dilution; xn = mol fraction of the nth substance listed
# Settings: 101 kPa, Liquid, Chromatography, x1 = 0
compound,measurement,setting,value
"COCCOC [1,2-dimethoxyethane] + CCCC[N+]1(C)CCCC1.N#C[B-](C#N)(C#N)C#N",activity coefficient,318.15 K,0.506 ± 0.031
same,activity coefficient,323.15 K,0.524 ± 0.031
same,activity coefficient,333.15 K,0.56 ± 0.032
same,activity coefficient,343.15 K,0.594 ± 0.032
same,activity coefficient,353.15 K,0.628 ± 0.033
"COCCOC [1,2-dimethoxyethane] + CCCC[N+]1(C)CCCC1.O=C1O[B-]2(OC1=O)OC(=O)C(=O)O2",activity coefficient,333.15 K,1.16 ± 0.05
same,activity coefficient,343.15 K,1.2 ± 0.06
same,activity coefficient,353.15 K,1.23 ± 0.06
same,activity coefficient,363.15 K,1.26 ± 0.06
same,activity coefficient,373.15 K,1.29 ± 0.06
"Cc1cccc(C)c1 [1,3-dimethylbenzene] + CCCC[N+]1(C)CCCC1.N#C[B-](C#N)(C#N)C#N",activity coefficient,318.15 K,1.63 ± 0.08
same,activity coefficient,323.15 K,1.64 ± 0.08
same,activity coefficient,333.15 K,1.66 ± 0.08
same,activity coefficient,343.15 K,1.69 ± 0.08
same,activity coefficient,353.15 K,1.72 ± 0.09
"Cc1cccc(C)c1 [1,3-dimethylbenzene] + CCCC[N+]1(C)CCCC1.O=C1O[B-]2(OC1=O)OC(=O)C(=O)O2",activity coefficient,333.15 K,3.96 ± 0.2
same,activity coefficient,343.15 K,3.84 ± 0.2
same,activity coefficient,353.15 K,3.73 ± 0.19
same,activity coefficient,363.15 K,3.64 ± 0.19
same,activity coefficient,373.15 K,3.55 ± 0.18
"FC(F)(F)C(Cl)Br (stereo not given) [1-bromo-1-chloro-2,2,2-trifluoroethane] + CCCC[N+]1(C)CCCC1.N#C[B-](C#N)(C#N)C#N",activity coefficient,318.15 K,0.842 ± 0.039
same,activity coefficient,323.15 K,0.869 ± 0.04
same,activity coefficient,333.15 K,0.923 ± 0.041
same,activity coefficient,343.15 K,0.977 ± 0.043
same,activity coefficient,353.15 K,1.03 ± 0.05
"FC(F)(F)C(Cl)Br (stereo not given) [1-bromo-1-chloro-2,2,2-trifluoroethane] + CCCC[N+]1(C)CCCC1.O=C1O[B-]2(OC1=O)OC(=O)C(=O)O2",activity coefficient,333.15 K,1.61 ± 0.08
same,activity coefficient,343.15 K,1.66 ± 0.08
same,activity coefficient,353.15 K,1.72 ± 0.09
same,activity coefficient,363.15 K,1.77 ± 0.09
same,activity coefficient,373.15 K,1.82 ± 0.09
COC(C)(C)C [2-methoxy-2-methylpropane] + CCCC[N+]1(C)CCCC1.N#C[B-](C#N)(C#N)C#N,activity coefficient,318.15 K,2.39 ± 0.12
same,activity coefficient,323.15 K,2.41 ± 0.12
same,activity coefficient,333.15 K,2.45 ± 0.13
same,activity coefficient,343.15 K,2.48 ± 0.13
same,activity coefficient,353.15 K,2.52 ± 0.13
COC(C)(C)C [2-methoxy-2-methylpropane] + CCCC[N+]1(C)CCCC1.O=C1O[B-]2(OC1=O)OC(=O)C(=O)O2,activity coefficient,333.15 K,6.34 ± 0.33
same,activity coefficient,343.15 K,6.06 ± 0.31
same,activity coefficient,353.15 K,5.87 ± 0.3
same,activity coefficient,363.15 K,5.7 ± 0.29
same,activity coefficient,373.15 K,5.57 ± 0.29
CC(C)=O [acetone] + CCCC[N+]1(C)CCCC1.N#C[B-](C#N)(C#N)C#N,activity coefficient,318.15 K,0.445 ± 0.03
same,activity coefficient,323.15 K,0.45 ± 0.03
same,activity coefficient,333.15 K,0.461 ± 0.03
same,activity coefficient,343.15 K,0.471 ± 0.03
same,activity coefficient,353.15 K,0.481 ± 0.03
CC(C)=O [acetone] + CCCC[N+]1(C)CCCC1.O=C1O[B-]2(OC1=O)OC(=O)C(=O)O2,activity coefficient,333.15 K,0.762 ± 0.037
same,activity coefficient,343.15 K,0.767 ± 0.037
same,activity coefficient,353.15 K,0.773 ± 0.037
same,activity coefficient,363.15 K,0.778 ± 0.037
same,activity coefficient,373.15 K,0.784 ± 0.037
CC#N [acetonitrile] + CCCC[N+]1(C)CCCC1.N#C[B-](C#N)(C#N)C#N,activity coefficient,318.15 K,0.425 ± 0.029
same,activity coefficient,323.15 K,0.426 ± 0.029
same,activity coefficient,333.15 K,0.427 ± 0.029
same,activity coefficient,343.15 K,0.429 ± 0.029
same,activity coefficient,353.15 K,0.43 ± 0.029
CC#N [acetonitrile] + CCCC[N+]1(C)CCCC1.O=C1O[B-]2(OC1=O)OC(=O)C(=O)O2,activity coefficient,333.15 K,0.509 ± 0.031
same,activity coefficient,343.15 K,0.512 ± 0.031
same,activity coefficient,353.15 K,0.514 ± 0.031
same,activity coefficient,363.15 K,0.516 ± 0.031
same,activity coefficient,373.15 K,0.517 ± 0.031
c1ccccc1 [benzene] + CCCC[N+]1(C)CCCC1.N#C[B-](C#N)(C#N)C#N,activity coefficient,318.15 K,0.833 ± 0.039
same,activity coefficient,323.15 K,0.841 ± 0.039
same,activity coefficient,333.15 K,0.858 ± 0.039
same,activity coefficient,343.15 K,0.874 ± 0.04
same,activity coefficient,353.15 K,0.891 ± 0.04
c1ccccc1 [benzene] + CCCC[N+]1(C)CCCC1.O=C1O[B-]2(OC1=O)OC(=O)C(=O)O2,activity coefficient,333.15 K,1.65 ± 0.08
same,activity coefficient,343.15 K,1.63 ± 0.08
same,activity coefficient,353.15 K,1.61 ± 0.08
same,activity coefficient,363.15 K,1.6 ± 0.08
same,activity coefficient,373.15 K,1.59 ± 0.08
CCC(C)=O [butanone] + CCCC[N+]1(C)CCCC1.N#C[B-](C#N)(C#N)C#N,activity coefficient,318.15 K,0.546 ± 0.031
same,activity coefficient,323.15 K,0.551 ± 0.031
same,activity coefficient,333.15 K,0.564 ± 0.032
same,activity coefficient,343.15 K,0.575 ± 0.032
same,activity coefficient,353.15 K,0.588 ± 0.032
CCC(C)=O [butanone] + CCCC[N+]1(C)CCCC1.O=C1O[B-]2(OC1=O)OC(=O)C(=O)O2,activity coefficient,333.15 K,1.13 ± 0.05
same,activity coefficient,343.15 K,1.12 ± 0.05
same,activity coefficient,353.15 K,1.11 ± 0.05
same,activity coefficient,363.15 K,1.11 ± 0.05
same,activity coefficient,373.15 K,1.1 ± 0.05
C1CCCCC1 [cyclohexane] + CCCC[N+]1(C)CCCC1.N#C[B-](C#N)(C#N)C#N,activity coefficient,318.15 K,8.51 ± 0.44
same,activity coefficient,323.15 K,8.26 ± 0.43
same,activity coefficient,333.15 K,7.83 ± 0.4
same,activity coefficient,343.15 K,7.44 ± 0.38
same,activity coefficient,353.15 K,7.11 ± 0.37
C1CCCCC1 [cyclohexane] + CCCC[N+]1(C)CCCC1.O=C1O[B-]2(OC1=O)OC(=O)C(=O)O2,activity coefficient,333.15 K,20.2 ± 1
same,activity coefficient,343.15 K,17.9 ± 0.9
same,activity coefficient,353.15 K,16.2 ± 0.8
same,activity coefficient,363.15 K,14.7 ± 0.8
same,activity coefficient,373.15 K,13.6 ± 0.7
ClCCl [dichloromethane] + CCCC[N+]1(C)CCCC1.N#C[B-](C#N)(C#N)C#N,activity coefficient,318.15 K,0.536 ± 0.031
same,activity coefficient,323.15 K,0.542 ± 0.031
same,activity coefficient,333.15 K,0.59 ± 0.03
same,activity coefficient,343.15 K,0.574 ± 0.032
same,activity coefficient,353.15 K,0.59 ± 0.032
ClCCl [dichloromethane] + CCCC[N+]1(C)CCCC1.O=C1O[B-]2(OC1=O)OC(=O)C(=O)O2,activity coefficient,333.15 K,0.745 ± 0.036
same,activity coefficient,343.15 K,0.76 ± 0.037
same,activity coefficient,353.15 K,0.774 ± 0.037
same,activity coefficient,363.15 K,0.789 ± 0.037
same,activity coefficient,373.15 K,0.803 ± 0.038
CC(C)OC(C)C [diisopropyl ether] + CCCC[N+]1(C)CCCC1.N#C[B-](C#N)(C#N)C#N,activity coefficient,318.15 K,5.87 ± 0.3
same,activity coefficient,323.15 K,5.88 ± 0.3
same,activity coefficient,333.15 K,5.86 ± 0.3
same,activity coefficient,343.15 K,5.85 ± 0.3
same,activity coefficient,353.15 K,5.84 ± 0.3
CC(C)OC(C)C [diisopropyl ether] + CCCC[N+]1(C)CCCC1.O=C1O[B-]2(OC1=O)OC(=O)C(=O)O2,activity coefficient,333.15 K,18.4 ± 1
same,activity coefficient,343.15 K,17 ± 0.9
same,activity coefficient,353.15 K,16 ± 0.8
same,activity coefficient,363.15 K,15.1 ± 0.8
same,activity coefficient,373.15 K,14.4 ± 0.7
COC(=O)OC [dimethyl carbonate] + CCCC[N+]1(C)CCCC1.N#C[B-](C#N)(C#N)C#N,activity coefficient,318.15 K,0.522 ± 0.031
same,activity coefficient,323.15 K,0.529 ± 0.031
same,activity coefficient,333.15 K,0.543 ± 0.031
same,activity coefficient,343.15 K,0.556 ± 0.032
same,activity coefficient,353.15 K,0.57 ± 0.032
COC(=O)OC [dimethyl carbonate] + CCCC[N+]1(C)CCCC1.O=C1O[B-]2(OC1=O)OC(=O)C(=O)O2,activity coefficient,333.15 K,0.853 ± 0.039
same,activity coefficient,343.15 K,0.861 ± 0.039
same,activity coefficient,353.15 K,0.87 ± 0.04
same,activity coefficient,363.15 K,0.877 ± 0.04
same,activity coefficient,373.15 K,0.884 ± 0.04
CCO [ethanol] + CCCC[N+]1(C)CCCC1.N#C[B-](C#N)(C#N)C#N,activity coefficient,318.15 K,1.32 ± 0.06
same,activity coefficient,323.15 K,1.27 ± 0.06
same,activity coefficient,333.15 K,1.17 ± 0.05
same,activity coefficient,343.15 K,1.09 ± 0.05
same,activity coefficient,353.15 K,1.02 ± 0.05
CCO [ethanol] + CCCC[N+]1(C)CCCC1.O=C1O[B-]2(OC1=O)OC(=O)C(=O)O2,activity coefficient,333.15 K,1.92 ± 0.1
same,activity coefficient,343.15 K,1.75 ± 0.09
same,activity coefficient,353.15 K,1.61 ± 0.08
same,activity coefficient,363.15 K,1.49 ± 0.07
same,activity coefficient,373.15 K,1.38 ± 0.07
CCOC(C)=O [ethyl acetate] + CCCC[N+]1(C)CCCC1.N#C[B-](C#N)(C#N)C#N,activity coefficient,318.15 K,0.942 ± 0.042
same,activity coefficient,323.15 K,0.949 ± 0.042
same,activity coefficient,333.15 K,0.967 ± 0.043
same,activity coefficient,343.15 K,0.982 ± 0.043
same,activity coefficient,353.15 K,1 ± 0.04
